Assay results as given in ChEMBL document CHEMBL1208734, “Aryl boronic acid inhibition of synthetic melanin polymerization” (Bioorg Med Chem Lett, 2010).

Legend:
[1] = Inhibition of synthetic melanin polymerization at 2 mM after 30 to 60 mins by UV-vis spectroscopic analysis relative to control; assay type: functional; conditions: values are per cent of control
[2] = Inhibition of synthetic melanin polymerization after 30 to 60 mins by UV-vis spectroscopic analysis; assay type: functional

## N#Cc1ccc(B(O)O)cc1
[1]
  residual activity: 19.4%
[2]
  IC50: 590 µM

## OB(O)c1ccc(Cl)cc1
[1]
  residual activity: 41.2%
[2]
  IC50: 1310 µM

## Cc1ccc(B(O)O)cc1 [TOLYL BORONIC ACID]
[1]
  residual activity: 62.8%
[2]
  IC50: 4450 µM

## COc1ccc(B(O)O)cc1
[1]
  residual activity: 66.1%
[2]
  IC50: 6200 µM

## OB(O)c1ccc(Br)cc1
[1]
  residual activity: 37.7%
[2]
  IC50: 1030 µM

## OB(O)c1ccc(C(F)(F)F)cc1
[1]
  residual activity: 26.9%
[2]
  IC50: 800 µM

## CC(=O)c1ccc(B(O)O)cc1
[1]
  residual activity: 30.5%
[2]
  IC50: 690 µM

## O=[N+]([O-])c1ccc(B(O)O)cc1
[1]
  residual activity: 21.5%
[2]
  IC50: 550 µM

## OB(O)c1ccc(F)cc1
[1]
  residual activity: 49.7%
[2]
  IC50: 1840 µM

## OB(O)c1ccccc1 [PHENYLBORONIC ACID]
[1]
  residual activity: 51.7%
[2]
  IC50: 1840 µM
